Read-outs that look alike come from different tables or passages of the source. Each block holds one compound with its values, some of them ahead of it.
Key:
[1] = logP by HPLC (EEC Directive 79/831 Annex V.A8, reversed-phase C 18); type: physicochemical; details: reversed-phase HPLC column (C 18)
Experimental: The stated logP values were determined in accordance with EEC Directive 79/831 Annex V.A8 by HPLC (High Performance Liquid Chromatography) using a reversed-phase column (C 18). Temperature: 43° C.
In the acidic range, the determination was carried out at pH 2.3 using the mobile phases 0.1% aqueous phosphoric acid and acetonitrile; linear gradient from 10% acetonitrile to 90% acetonitrile.
In the neutral range, the determination was carried out at pH 7.5 using the mobile phases 0.01 molar aqueous phosphate buffer solution and acetonitrile; linear gradient from 10% acetonitrile to 90% acetonitrile.
Calibration was carried out using unbranched alkan-2-ones (having 3 to 16 carbon atoms) with known logP values (determination of the logP values by the retention times using linear interpolation between two successive alkanones).

[2] = test system: Amblyomma variegatum or A. hebraeum, nymphs which have sucked themselves full; assay: Nymphecdysis test on polyphagous ticks; type: in vivo; details: for activity in the nymphecdysis test: in vivo; for Effect on ecdysis in % after 48h: 100 ppm active compound, nymphs immersed for 1 minute
Experimental: Nymphecdysis Test on Polyphagous Ticks
Test animals: Amblyomma variegatum or A. hebraeum, nymphs which have sucked themselves full
Solvent: Dimethyl sulphoxide
20 mg of active compound are dissolved in 1 ml of dimethyl sulphoxide, more dilute concentrations are prepared by dilution with distilled water.
10 nymphs which have sucked themselves full are immersed for 1 minute into the preparation of active compound to be tested. The animals are transferred to petri dishes (∅ 9.5 cm) fitted with filter discs and covered. […]
100% means that none of the animals have undergone normal ecdysis. 0% means that all animals have undergone ecdysis.
In this test, for example, the compounds 4 and 5 of the preparation examples show good activity.

[3] = test system: Heliothis virescens caterpillars; assay: Heliothis virescens test; type: in vivo; details: 40 ppm active compound, soyabean shoots dipped
Experimental: (§1) Heliothis virescens Test Solvent: 30 parts by weight of dimethylformamide Emulsifier: 1 part by weight of alkylaryl polyglycol ether To produce a suitable preparation of active compound, 1 part by weight of active compound is mixed with the stated amounts of solvent and emulsifier, and the concentrate is diluted with emulsifier-containing water to the desired concentration. Soyabean shoots (Glycine max) are treated by being dipped into the preparation of active compound of the desired concentration and are populated with Heliothis virescens caterpillars whilst the leaves are still moist. After the desired period of time, the kill in % is determined. 100% means that all caterpillars have been killed; 0% means that none of the caterpillars have been killed.

[4] = test system: larvae of the mustard beetle (Phaedon cochleariae); assay: Phaedon larvae test; type: in vivo; details: 1000 ppm active compound, cabbage leaves dipped
Experimental: as §1, with “Phaedon larvae” for “Heliothis virescens”, “Cabbage leaves (Brassica oleracea)” for “Soyabean shoots (Glycine max)”, “larvae of the mustard beetle (Phaedon cochleariae)” for “Heliothis virescens caterpillars”, “beetle larvae” for “caterpillars”

[5] = test system: army worm (Spodoptera exigua) caterpillars; assay: Spodoptera exigua test; type: in vivo; details: cabbage leaves dipped
Experimental: as §1, with “Spodoptera exigua Test” for “Heliothis virescens Test”, “Solvent: 7” for “Solvent: 30”, “concentration. Cabbage leaves (Brassica oleracea)” for “concentration. Soyabean shoots (Glycine max)”, “with army worm (Spodoptera exigua)” for “with Heliothis virescens”

[6] = test system: army worm (Spodoptera frugiperda) caterpillars; assay: Spodoptera frugiperda test; type: in vivo; details: 1000 ppm active compound, cabbage leaves dipped
Experimental: as §1, with “Spodoptera frugiperda Test” for “Heliothis virescens Test”, “concentration. Cabbage leaves (Brassica oleracea)” for “concentration. Soyabean shoots (Glycine max)”, “with army worm (Spodoptera frugiperda)” for “with Heliothis virescens”

[7] = test system: greenhouse red spider mite (tetranychus urticae); assay: Tetranychus test (OP-resistant/dip treatment); type: in vivo; details: 100 ppm active compound, bean plants dipped
Experimental: Tetranychus Test (OP-Resistant/Dip Treatment)
Solvent: 30 parts by weight of dimethylformamide
Emulsifier: 1 part by weight of alkylaryl polyglycol ether
To produce a suitable preparation of active compound, 1 part by weight of active compound is mixed with the stated amounts of solvent and emulsifier, and the. concentrate is diluted with emulsifier-containing water to the. desired concentration.
Bean plants (Phaseolus vulgaris) which are heavily infested by all stages of the greenhouse red spider mite (tetranychus urticae) are dipped into a preparation of active compound of the desired concentration.
After the desired period of time, the effect in % is determined. 100% means that all spider mites have been killed; 0% means that none of the spider mites have been killed.

[8] = pH 2.3, 0.1% aqueous phosphoric acid / acetonitrile, 43° C., read-out: logP (pH 2.3)
[9] = pH not printed at the place, read-out: logP

- chromatographic logP [1, 8]: 2.01
SMILES: CC(C)(C)n1nnc(-c2ccc(B(O)O)cc2)n1 [Example V-1, 4-[(2-tert-butyl)-2H-tetrazol-5-yl]phenylboronic acid]

- chromatographic logP [1, 8]: 0.19
SMILES: OB(O)c1ccc(-c2nn[nH]n2)cc1 [Example V-2, 4-(2H-tetrazol-5-yl)-phenylboronic acid]

- chromatographic logP [1, 8]: 4.23
SMILES: CC(C)(C)n1nnc(-c2ccc(Br)cc2)n1 [VII-1, 2-tert-butyl-5-(4-bromo-phenyl)-1(2)H-tetrazole]

- chromatographic logP [1, 8]: 3.42
SMILES: CCOCn1nnc(-c2ccc(Br)cc2)n1 [VII-2, 2-ethoxymethyl-5-(4-bromo-phcnyl)-1(2)H tetrazole]

- chromatographic logP [1, 8]: 3.2
SMILES: CCn1nnc(-c2ccc(Br)cc2)n1 [VII-3, 2-ethyl-5-(4-bromo-phenyl)-1(2)H-tetrazole]

- melting point: 57 °C
- chromatographic logP [1, 8]: 2.11
SMILES: N#Cc1ccc(C2CCC(c3c(F)cccc3F)=N2)cc1 (stereo not shown) [VIII-1, 4-[5-(2,6-difluorophenyl)-3,4-dihydro-2Hpyrrol-2-yl]benzonitrile]

- melting point: 123 °C
- chromatographic logP [1, 8]: 2.84
SMILES: N#Cc1ccc(-c2ccc(C3CCC(c4c(F)cccc4F)=N3)cc2)cc1 (stereo not shown) [VIII-2, 4′-[5-(2,6-difluorophenyl)-3,4-dihydro-2H-pyrrol-2-yl]-1,1′-biphenyl-4carbonitrile]

- chromatographic logP [1, 8]: 2.12
SMILES: CC(C)(C)OC(=O)N1C(=O)CCC1c1ccc(C#N)cc1 (stereo not shown) [XI-1, tert-butyl-2-(4-cyanophenyl)-5-oxo-1-pyrrolidinecarboxylate]

- melting point: 152 °C
- chromatographic logP [1, 8]: 3.03
SMILES: CC(C)(C)OC(=O)N1C(=O)CCC1c1ccc(-c2ccc(C#N)cc2)cc1 (stereo not shown) [XI-2, tert-butyl 2(4′-cyano-1,1′-biphenyl-4-yl)-5-oxo-1-pyrrolidinecarboxylate]

The remaining lines, values behind:

SMILES: N#Cc1ccc(-c2ccccc2C2CCC(=O)N2)cc1 (stereo not shown) [2′-(5-oxo-2-pyrrolidinyl)-1,1′-biphenyl-4carbonitrile]
- chromatographic logP [1, 8]: 1.94

SMILES: CCCn1nnc(-c2ccc(C3CCC(c4c(F)cccc4F)=N3)cc2)n1 (stereo not shown) [Example 1]
- chromatographic logP [1, 8]: 2.61

SMILES: CC(C)(C)n1nnc(-c2ccc(-c3ccc(C4CCC(c5c(F)cccc5F)=N4)cc3)cc2)n1 (stereo not shown) [Example 2, 2-tert-butyl-5-{4′-[5-(2,6-difluorophenyl)-3,4dihydro-2H-pyrrol-2-yl]-1,1′-biphenyl-4-yl}-2H-tetrazole]
- melting point: 96 °C
- chromatographic logP [1, 8]: 4.14

SMILES: CC(C)(C)n1nnc(-c2ccc(-c3ccc(C4CCC(c5c(F)cccc5F)=N4)cc3)cc2)n1 (stereo not shown) [Example 3, 2-tert-butyl-5-{4′-[5-(2,6-difluorophenyl)-3,4dihydro-2H-pyrrol-2-yl]-1′-biphenyl-4-yl}-2H-tetrazole]
- chromatographic logP [1, 9]: 4.14

SMILES: CCOCn1nnc(-c2ccc(-c3ccc(C4CCC(c5c(F)cccc5F)=N4)cc3)cc2)n1 (stereo not shown) [Example 4, 5-{4′-[5-(2,6-difluorophenyl)-3,4-dihydro-2H-pyrrol-2-yl]-1,1′-biphenyl-4-yl}-2-(ethoxymethyl)-2H-tetrazole]
- chromatographic logP [1, 9]: 3.4
- activity in the nymphecdysis test [2]: good activity

SMILES: CCn1nnc(-c2ccc(-c3ccc(C4CCC(c5c(F)cccc5F)=N4)cc3)cc2)n1 (stereo not shown) [Example 5, 5-{4′-[5-(2,6-difluorophenyl)-3,4-dihydro-2Hpyrrol-2-yl]-1,1′-biphenyl-4-yl}-2-ethyl-2H-tetrazole]
- chromatographic logP [1, 8]: 3.21
- activity in the nymphecdysis test [2]: good activity

SMILES: Fc1cccc(F)c1C1=NC(c2ccc(-c3nn[nH]n3)cc2)CC1 (stereo not shown) [I-a-1]
- chromatographic logP [1, 8]: 1.28

SMILES: N#Cc1ccc(C2CCC(=O)N2)cc1 (stereo not shown) [XIII-a-1, 4-(5-oxo-2-pyrrolidinyl)benzonitrile]
- melting point: 155 °C
- chromatographic logP [1, 8]: 0.96

SMILES: N#Cc1ccc(-c2ccc(C3CCC(=O)N3)cc2)cc1 (stereo not shown) [XIII-b-1, 4′-(5-oxo-2-pyrrolidinyl)-1,1′-biphenyl-4carbonitrile]
- chromatographic logP [1, 8]: 1.92

SMILES: CC(C)(C)n1nnc(-c2ccc(-c3ccc(C4CCC(c5c(F)cccc5F)=N4)cc3)cc2)n1 (stereo not shown) [drawing 54]
- Kill rate in % after 6d [3]: 100%

SMILES: CCn1nnc(-c2ccc(-c3ccc(C4CCC(c5c(F)cccc5F)=N4)cc3)cc2)n1 (stereo not shown) [drawing 55]
- Kill rate in % after 6d [3]: 100%

SMILES: CC(C)(C)n1nnc(-c2ccc(-c3ccc(C4CCC(c5c(F)cccc5F)=N4)cc3)cc2)n1 (stereo not shown) [drawing 56]
- Kill rate in % after 7d [4]: 100%

SMILES: CCCn1nnc(-c2ccc(C3CCC(c4c(F)cccc4F)=N3)cc2)n1 (stereo not shown) [drawing 57]
- Kill rate in % after 7d [4]: 100%

SMILES: CCn1nnc(-c2ccc(-c3ccc(C4CCC(c5c(F)cccc5F)=N4)cc3)cc2)n1 (stereo not shown) [drawing 58]
- Kill rate in % after 7d [4]: 100%

SMILES: CCOCn1nnc(-c2ccc(-c3ccc(C4CCC(c5c(F)cccc5F)=N4)cc3)cc2)n1 (stereo not shown) [drawing 59]
- Kill rate in % after 7d [4]: 100%

SMILES: CC(C)(C)n1nnc(-c2ccc(-c3ccc(C4CCC(c5c(F)cccc5F)=N4)cc3)cc2)n1 (stereo not shown) [drawing 61]
- Kill rate in % after 6d ([5]; 8 ppm active compound): 100%

SMILES: CCn1nnc(-c2ccc(-c3ccc(C4CCC(c5c(F)cccc5F)=N4)cc3)cc2)n1 (stereo not shown) [drawing 62]
- Kill rate in % after 6d ([5]; 40 ppm active compound): 100%

SMILES: CC(C)(C)n1nnc(-c2ccc(-c3ccc(C4CCC(c5c(F)cccc5F)=N4)cc3)cc2)n1 (stereo not shown) [drawing 63]
- Kill rate in % after 7d [6]: 100%

SMILES: CCCn1nnc(-c2ccc(C3CCC(c4c(F)cccc4F)=N3)cc2)n1 (stereo not shown) [drawing 64]
- Kill rate in % after 7d [6]: 100%

SMILES: CCn1nnc(-c2ccc(-c3ccc(C4CCC(c5c(F)cccc5F)=N4)cc3)cc2)n1 (stereo not shown) [drawing 65]
- Kill rate in % after 7d [6]: 100%

SMILES: CCOCn1nnc(-c2ccc(-c3ccc(C4CCC(c5c(F)cccc5F)=N4)cc3)cc2)n1 (stereo not shown) [drawing 66]
- Kill rate in % after 7d [6]: 100%

SMILES: CC(C)(C)n1nnc(-c2ccc(-c3ccc(C4CCC(c5c(F)cccc5F)=N4)cc3)cc2)n1 (stereo not shown) [drawing 67]
- Kill rate in % after 7d [7]: 98%

SMILES: CCCn1nnc(-c2ccc(C3CCC(c4c(F)cccc4F)=N3)cc2)n1 (stereo not shown) [drawing 68]
- Kill rate in % after 7d [7]: 90%

SMILES: CCn1nnc(-c2ccc(-c3ccc(C4CCC(c5c(F)cccc5F)=N4)cc3)cc2)n1 (stereo not shown) [drawing 69]
- Kill rate in % after 7d [7]: 98%

SMILES: CCOCn1nnc(-c2ccc(-c3ccc(C4CCC(c5c(F)cccc5F)=N4)cc3)cc2)n1 (stereo not shown) [drawing 70]
- Kill rate in % after 7d [7]: 98%

SMILES: CCn1nnc(-c2ccc(-c3ccc(C4CCC(c5c(F)cccc5F)=N4)cc3)cc2)n1 (stereo not shown) [drawing 73]
- Effect on ecdysis in % after 48h [2]: 100%

SMILES: CCOCn1nnc(-c2ccc(-c3ccc(C4CCC(c5c(F)cccc5F)=N4)cc3)cc2)n1 (stereo not shown) [drawing 74]
- Effect on ecdysis in % after 48h [2]: 100%
